Assay results published in patent US12319655B2, “RAF kinase inhibitors and methods of use thereof” (Deciphera Pharmaceuticals, LLC, priority 2021, dated 2025).

Columns and labels:
[1] = molecular target: B-Raf kinase (SEQ. ID NO: 2) (Homo sapiens (Human), UniProt P15056); test: Biochemical Assay for B-Raf (1); conditions: Table J, assay version (1); read-out: BRAF (1) IC50
Procedure, shortened: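 IC50 derived by four-parameter sigmoidal fit of percent inhibition, normalised to uninhibited and reference-inhibitor controls, using reaction rates over 4–5 h. Coupled spectrophotometric readout (NADH loss at 340 nm, 6 h, 30° C.); 1 mM ATP, 30.1 nM MEK, 0.13 nM B-Raf, pH 7.5 Tris buffer, 1% DMSO.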

H2405 cells = test: H2405 Cell Proliferation Assay (1); type: cell-based; conditions: Homo sapiens, NCI-H2405
Procedure, shortened: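 Viability was read by resazurin reduction (ex 540 nm, em 600 nm; 5-6 h with 40 μL of 440 μM stock) after 67-72 h compound exposure at 37 °C.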

WM3928 cells = test: WM3928 Cell Proliferation Assay (1); type: cell-based
Procedure, shortened: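 IC50 was derived from resazurin fluorescence (ex 540, em 600 nm) after a 6–7 h dye incubation. Before that, cells had 67–72 h of compound exposure at 37 °C, 5% CO2.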

[2] = molecular target: B-Raf (V600E) (SEQ. ID NO: 4) kinase (Homo sapiens (Human), UniProt P15056, V600E); test: Biochemical Assay for B-Raf (V600E) (1); conditions: Table J, BRAF V600E, assay version (1); read-out: BRAF VE (1) IC50
Chain of B-Raf (V600E) (SEQ. ID NO: 4) kinase (P15056 416-766 V600E): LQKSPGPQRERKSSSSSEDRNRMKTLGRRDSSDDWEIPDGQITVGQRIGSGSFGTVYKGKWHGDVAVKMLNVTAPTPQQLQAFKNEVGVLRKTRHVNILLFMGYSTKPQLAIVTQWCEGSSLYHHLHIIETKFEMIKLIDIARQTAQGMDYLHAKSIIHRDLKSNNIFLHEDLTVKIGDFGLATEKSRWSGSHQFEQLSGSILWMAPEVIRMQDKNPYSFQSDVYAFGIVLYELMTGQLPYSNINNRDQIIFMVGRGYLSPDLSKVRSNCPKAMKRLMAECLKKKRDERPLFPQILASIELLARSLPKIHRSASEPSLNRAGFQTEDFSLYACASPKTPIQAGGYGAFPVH
Procedure, shortened: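 Serially diluted compounds tested against 0.03 nM enzyme with 30.1 nM MEK substrate and 1 mM ATP (Tris pH 7.5, 15 mM MgCl2), ATP use coupled to NADH loss via PK/LDH. A340 monitored continuously 6 h, 30 °C; IC50 fitted (four-parameter) from the 3–4 h rate versus no-compound and known-inhibitor controls.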

Chain of B-Raf kinase (SEQ. ID NO: 2) (P15056 416-766): as the sequence (P15056 416-766 V600E) above, with E185V counted along it

| SMILES | IC50 [1] [nM] | IC50 (H2405 cells) [nM] | IC50 (WM3928 cells) [nM] | IC50 [2] [nM] |
| --- | --- | --- | --- | --- |
| CNC(=O)c1cc(-c2cncc(-c3cc(NC(=O)c4ccnc(C(C)(C)C#N)c4)ccc3C)c2)ncn1 [Example 235] | 100 to 500 | 100 to 500 | ≤ 100 | ≤ 100 |
| Cc1ccc(NC(=O)c2ccnc(C(C)(C)C#N)c2)cc1-c1ccnc(-c2ccnc(NC(=O)C3(C#N)CC3)c2)n1 [Example 241] | ≤ 100 | ≤ 100 | ≤ 100 | ≤ 100 |
| CNC(=O)c1cc(-c2ccnc(-c3cc(NC(=O)c4ccnc(C(C)(C)C#N)c4)c(F)cc3C)n2)ccn1 [Example 242] | 100 to 500 | 100 to 500 | 100 to 500 | ≤ 100 |
| Cc1ccc(NC(=O)c2ccnc(C(C)(C)C#N)c2)cc1-c1cc(-c2ccnc(NC(=O)C3CC3)c2)cnn1 [Example 245] | ≤ 100 | ≤ 100 | ≤ 100 | ≤ 100 |
| Cc1ncc(NC(=O)c2ccnc(C(C)(C)F)c2)cc1-c1cccc(-c2cc(NC(=O)C3CC3)ncn2)c1 [Example 249] | ≤ 100 | 100 to 500 | ≤ 100 | ≤ 100 |
| Cc1ccc(NC(=O)c2cnnc(C3CC3)c2)cc1-c1ccnc(-c2ccnc(NC(=O)C3CC3)c2)n1 [Example 250] | ≤ 100 | 100 to 500 | 100 to 500 | ≤ 100 |
| Cc1ncc(NC(=O)c2ccnc(C(C)(C)C#N)c2)cc1-c1ccnc(-c2ccnc(NC(=O)C3CC3)c2)c1 [Example 251] | ≤ 100 | 100 to 500 | ≤ 100 | ≤ 100 |
| Cc1ncc(NC(=O)c2ccnc(C3CC3)c2)cc1-c1ccnc(-c2ccnc(NC(=O)C3CC3)c2)c1 [Example 253] | ≤ 100 | 100 to 500 | ≤ 100 | ≤ 100 |
| Cc1ncc(NC(=O)c2cnnc(C3CC3)c2)cc1-c1ccnc(-c2ccnc(NC(=O)C3CC3)c2)c1 [Example 254] | ≤ 100 | 1000 to 10000 | 1000 to 10000 | ≤ 100 |
| Cc1ccc(NC(=O)c2ccnc(C3CC3)c2)cc1-c1cccc(-c2cc(NC(=O)C3CC3)ncn2)c1 [Example 255] | ≤ 100 | 100 to 500 | ≤ 100 | ≤ 100 |
| Cc1ncc(NC(=O)c2ccnc(C3CC3)c2)cc1-c1cnc(C)c(-c2ccnc(NC(=O)C3CC3)c2)c1 [Example 256] | ≤ 100 | 100 to 500 | 500 to 1000 | ≤ 100 |
| CNC(=O)c1cc(-c2cc(-c3cc(NC(=O)c4ccnc(C(C)(C)OC)c4)ccc3C)ccn2)ccn1 [Example 264] | 100 to 500 | 100 to 500 | ≤ 100 | ≤ 100 |
| CNC(=O)c1cc(-c2cc(-c3cc(NC(=O)c4ccnc(C5(C#N)CC5)c4)ccc3C)ccn2)ccn1 [Example 265] | ≤ 100 | ≤ 100 | ≤ 100 | ≤ 100 |
| Cc1ccc(NC(=O)c2ccnc(C(C)(C)C#N)c2)cc1-c1cccc(-c2cc(N)ncn2)c1 [Example 267] | ≤ 100 | 500 to 1000 | 100 to 500 | ≤ 100 |
| Cc1ncc(NC(=O)c2ccnc(C3CC3)c2)cc1-c1cccc(-c2ccnc(NC(=O)C3CC3)c2)n1 [Example 270] | ≤ 100 | 100 to 500 | 100 to 500 | ≤ 100 |
| Cc1cc(F)c(NC(=O)c2ccnc(C(F)(F)F)c2)cc1-c1cncc(-c2ccnc(NC(=O)C3CC3)c2)n1 [Example 271] | ≤ 100 | 100 to 500 | ≤ 100 | ≤ 100 |
| Cc1cc(C(=O)Nc2cnc(C)c(-c3ccnc(-c4ccnc(NC(=O)C5CC5)c4)n3)c2)ccn1 [Example 273] | 100 to 500 | 1000 to 10000 | 1000 to 10000 | ≤ 100 |
| COC(C)(C)c1cc(C(=O)Nc2cnc(C)c(-c3cccc(-c4cc(NC(=O)C5CC5)ncn4)c3)c2)ccn1 [Example 274] | ≤ 100 | ≤ 100 | ≤ 100 | ≤ 100 |
| Cc1ncc(NC(=O)c2ccnc(C3CC3)c2)cc1-c1ccnc(-c2ccnc(NC(=O)C3CC3)c2)n1 [Example 277] | ≤ 100 | 100 to 500 | 100 to 500 | ≤ 100 |
| Cc1ncc(NC(=O)c2cnnc(C3CC3)c2)cc1-c1ccnc(-c2ccnc(NC(=O)C3CC3)c2)n1 [Example 278] | ≤ 100 | 1000 to 10000 | 1000 to 10000 | ≤ 100 |
| Cc1ncc(NC(=O)c2cnn(C(C)(C)C)c2)cc1-c1cccc(-c2cc(NC(=O)C3CC3)ncn2)c1 [Example 279] | ≤ 100 | 100 to 500 | ≤ 100 | ≤ 100 |
